From patent publication US20210087156A1, “PHARMACEUTICALLY ACCEPTABLE SALTS OF BENZODICYCLOALKANE DERIVATIVE, P[…] THEREOF, AND APPLICATION THEREOF” (priority 2018, published 2021)
In brackets after ≈: the same amount, converted by molar mass.

How the values were obtained:
Format in all cases: physicochemical
[1] = Solubility test at room temperature
Protocol: The solubility of the crystal form A, the crystal form C and the free base in 0.1 M HCL, pH 4.5, or pH 6.8 buffer or water was tested at room temperature. In the test, the standard curves of the crystal form A, the crystal form C and the free base were plotted respectively. Subsequently, a appropriate amount of the crystal form A, the crystal form C and the free base was weighed respectively, to which was added a appropriate amount of solvent. The mixture was shaken at room temperature for 24 h, centrifuged. The supernatant was taken and the solubility was determined. The results are shown in Table 7, (the concentration unit is mg/mi).

[2] = Stability test of free base, crystal form A and crystal form C (content and related substance)
Protocol: The crystal form and purity change were measured respectively on 3rd and 7th day. The results are shown in Table 6, FIGS. 22, 23, 24 and 25. […]

[3] = Properties of crystal form I (DVS hygroscopicity, stability)
Protocol: The Dynamic Vapor Sorption (DVS) curve was acquired on the DVS Intrinsic of Surface Measurement Systems.
About 10 mg of the free base of the compound of formula X prepared according to the method of Example 1 was weighed into a glass vial, and an appropriate amount of ethyl acetate was added to obtain a nearly saturated solution, which was fully dissolved by ultrasonication and filtered. 20-200 uL of corresponding solvent was added to the clear filtrate, which was stood and the solvent was slowly evaporated at room temperature. After the solvent was completely evaporated, the resulting solid was collected and subjected to an XRPD test.

[4] = 0.1M HCL, room temperature, shaken 24 h
[5] = H2O, room temperature, shaken 24 h
[6] = pH 4.5 buffer, room temperature, shaken 24 h
[7] = pH 6.8 buffer, room temperature, shaken 24 h
[8] = 5° C., 0 d (control), listed as From A
[9] = 40° C./75% RH, 3 d, listed as From A
[10] = 40° C./75% RH, 7 d, listed as From A
[11] = 40° C./75% RH, 3 d, listed as From C
[12] = 40° C./75% RH, 7 d, listed as From C

C[C@@]12CCCCC[C@@H](Cc3ccc(OC(=O)NC4COC4)cc31)[C@@H]2N [Form A]
Final pH [1, 4]: 0.91
phenomenon [1, 4]: Flocculent
solubility at 24 h ([1]; 0.1 M HCl, simulated gastric fluid, thermodynamic from solid, room temperature, shaken 24 h): 17.8 mg/mL (≈ 51.8 mM)
Final pH [1, 5]: 3.86
phenomenon [1, 5]: Flocculent
solubility [1, 5]: 8.25 mg/mL (≈ 24 mM)
Final pH [1, 6]: 3.92
phenomenon [1, 6]: clarified
solubility [1, 6]: ≥8.36 mg/mL
Final pH [1, 7]: 5.86
phenomenon [1, 7]: clarified
solubility [1, 7]: ≥11.03 mg/mL
character ([2]; 5° C., 0 d (control)): off-white solid
Area (%) [2, 8]: 99.82%
Total impurity (%) [2, 8]: 0.18%
RRT(%) 1.25 (related substance) ([2]; 5° C., 0 d, — = below detection limit): 0.18%
RRT(%) 1.25 (related substance) ([2]; 40° C./75% RH, 3 d): 0.14%
character ([2]; 40° C./75% RH, 3 d): off-white solid
Area (%) [2, 9]: 99.47%
RRT(%) 0.81 (related substance) [2, 9]: 0.39%
Total impurity (%) [2, 9]: 0.53%
RRT(%) 1.25 (related substance) ([2]; 40° C./75% RH, 7 d): 0.17%
character ([2]; 40° C./75% RH, 7 d): off-white solid
Area (%) [2, 10]: 99.28%
RRT(%) 0.81 (related substance) [2, 10]: 0.54%
Total impurity (%) [2, 10]: 0.72%
RRT(%) 1.25 (related substance) ([2]; 60° C., 3 d): 0.20%
character ([2]; 60° C., 3 d): off-white solid
Area (%) ([2]; 60° C., 3 d, listed as From A): 99.68%
RRT(%) 0.81 (related substance) ([2]; 60° C., 3 d, listed as From A): 0.12%
Total impurity (%) ([2]; 60° C., 3 d, listed as From A): 0.32%
RRT(%) 1.25 (related substance) ([2]; 60° C., 7 d): 0.30%
character ([2]; 60° C., 7 d): off-white solid
Area (%) ([2]; 60° C., 7 d, listed as From A): 99.58%
RRT(%) 0.81 (related substance) ([2]; 60° C., 7 d, listed as From A): 0.11%
Total impurity (%) ([2]; 60° C., 7 d, listed as From A): 0.42%

C[C@@]12CCCCC[C@@H](Cc3ccc(OC(=O)NC4COC4)cc31)[C@@H]2N [Form I]
stability (in words) [3]: good stability
hygroscopicity (DVS curve) ([3]; DVS, 25° C., 0% RH~95% RH): almost has no hygroscopicity

C[C@@]12CCCCC[C@@H](Cc3ccc(OC(=O)NC4COC4)cc31)[C@@H]2N [Form C]
Final pH [1, 4]: 1.53
phenomenon [1, 4]: clarified
solubility [1, 4]: ≥33.87 mg/mL
Final pH [1, 5]: 3.45
phenomenon [1, 5]: clarified
solubility [1, 5]: ≥26.05 mg/mL
solubility compared to the free base (in words) ([1]; pH 4.5, pH 6.8, or 0.1 M HCL): increased significantly
Final pH [1, 6]: 3.47
phenomenon [1, 6]: clarified
solubility [1, 6]: ≥25.50 mg/mL
Final pH [1, 7]: 3.84
phenomenon [1, 7]: clarified
solubility [1, 7]: ≥26.11 mg/mL
character ([2]; 5° C., 0 d (control)): off-white solid
Area (%) ([2]; 5° C., 0 d (control), listed as From C): 100.00%
RRT(%) 0.70 (related substance) ([2]; 40° C./75% RH, 3 d): 3.60%
RRT(%) 1.14 (related substance) ([2]; 40° C./75% RH, 3 d): 0.93%
character ([2]; 40° C./75% RH, 3 d): off-white solid
Area (%) [2, 11]: 94.92%
RRT(%) 0.81 (related substance) [2, 11]: 0.54%
Total impurity (%) [2, 11]: 5.08%
RRT(%) 0.70 (related substance) ([2]; 40° C./75% RH, 7 d): 3.04%
RRT(%) 1.14 (related substance) ([2]; 40° C./75% RH, 7 d): 0.92%
character ([2]; 40° C./75% RH, 7 d): off-white solid
Area (%) [2, 12]: 95.19%
RRT(%) 0.81 (related substance) [2, 12]: 0.85%
Total impurity (%) [2, 12]: 4.81%
RRT(%) 0.70 (related substance) ([2]; 60° C., 3 d): 3.68%
RRT(%) 1.14 (related substance) ([2]; 60° C., 3 d): 1.44%
character ([2]; 60° C., 3 d): off-white solid
Area (%) ([2]; 60° C., 3 d, listed as From C): 94.64%
RRT(%) 0.81 (related substance) ([2]; 60° C., 3 d, listed as From C): 0.24%
Total impurity (%) ([2]; 60° C., 3 d, listed as From C): 5.36%
RRT(%) 0.70 (related substance) ([2]; 60° C., 7 d): 3.60%
RRT(%) 1.14 (related substance) ([2]; 60° C., 7 d): 1.52%
character ([2]; 60° C., 7 d): off-white solid
Area (%) ([2]; 60° C., 7 d, listed as From C): 94.62%
RRT(%) 0.81 (related substance) ([2]; 60° C., 7 d, listed as From C): 0.26%
Total impurity (%) ([2]; 60° C., 7 d, listed as From C): 5.38%
